# Measured values published in paper PMC8286840, “Identifying SARS-CoV-2 antiviral compounds by screening for small molecule inhibitors of Nsp3 papain-like protease” (Biochemical Journal, 2021).
# Structures can show the parent of a compound that is named as a salt. Where two headings read alike, the source gives them in different places.
# What was measured:
# [1] = molecular target: T1, SARS-CoV-2 PLpro (nsp3 1564–1878) (Severe acute respiratory syndrome coronavirus 2, UniProt P0DTD1); experiment: biochemical; parameters: FRET-quenched peptide (Pro3) cleavage by PLpro, 10 min pre-incubation, slope over 20 min, normalised to no-compound control; settings: high concentration screen
# [2] = molecular target: T1, SARS-CoV-2 PLpro (nsp3 1564–1878); experiment: biochemical; parameters: FRET-quenched peptide (Pro3) cleavage by PLpro, 10 min pre-incubation, slope over 20 min, normalised to no-compound control; settings: low concentration screen
# [3] = Well no.=2182, read-out: % of control remaining
# [4] = Well no.=123, read-out: % of control remaining
# [5] = Well no.=8398, read-out: % of control remaining
# [6] = Well no.=920, read-out: % of control remaining
# [7] = Well no.=620, read-out: % of control remaining
# [8] = Well no.=4612, read-out: % of control remaining
# [9] = Well no.=3428, read-out: % of control remaining
# [10] = Well no.=6225, read-out: % of control remaining
# [11] = Well no.=5803, read-out: % of control remaining
# [12] = Well no.=2526, read-out: % of control remaining
# [13] = Well no.=5054, read-out: % of control remaining
# [14] = Well no.=6205, read-out: % of control remaining
# [15] = Well no.=8014, read-out: % of control remaining
# [16] = Well no.=877, read-out: % of control remaining
# [17] = Well no.=1853, read-out: % of control remaining
# [18] = Well no.=2841, read-out: % of control remaining
# [19] = Well no.=8139, read-out: % of control remaining
# [20] = read-out: % of control remaining, Well no.=149
# [21] = Well no.=7567, read-out: % of control remaining
smiles,measurement,setting,value
CC[C@H](c1ccc(O)cc1)[C@@H](CC)c1ccc(O)cc1 [Hexestrol],remaining activity at 3.75 µM,[1]; [3],100%
same,remaining activity at 1.25 µM,[2]; [3],99.9%
Nc1nc(OCc2ccccc2)c2nc[nH]c2n1 [O6-benzylguanine],remaining activity at 3.75 µM,[1]; [4],105%
same,remaining activity at 1.25 µM,[2]; [4],106%
NS(=O)(=O)c1ccccc1 [Benzenesulfonamide],remaining activity at 3.75 µM,[1]; [5],101%
same,remaining activity at 1.25 µM,[2]; [5],97.6%
COc1nc(C)nc(Cl)c1NC1=NCCN1 [Moxonidine hydrochloride],remaining activity at 3.75 µM,[1]; [6],102%
same,remaining activity at 1.25 µM,[2]; [6],100%
O=C(O)Cc1cnc[nH]1 [Imidazole-4-acetic acid hydrochloride],remaining activity at 3.75 µM,[1]; [7],101%
same,remaining activity at 1.25 µM,[2]; [7],97.6%
Nc1cccc(-c2cc3c(Oc4cccc(O)c4)ncnc3[nH]2)c1 [TWS119],remaining activity at 3.75 µM,[1]; [8],99.7%
same,remaining activity at 1.25 µM,[2]; [8],100%
NC[C@H]1O[C@H](O[C@H]2[C@H](O)[C@@H](O[C@H]3O[C@H](CO)[C@@H](O)[C@H](N)[C@H]3O)[C@H](N)C[C@@H]2N)[C@H](O)[C@@H](O)[C@@H]1O [Kanamycin sulfate],remaining activity at 3.75 µM,[1]; [9],96.2%
same,remaining activity at 1.25 µM,[2]; [9],97.3%
Clc1ccc(CCCOCCCN2CCCCC2)cc1 [Pitolisant (hydrochloride)],remaining activity at 3.75 µM,[1]; [10],101%
same,remaining activity at 1.25 µM,[2]; [10],100%
CCCCCCCC/C=C\CCCCCCCC(=O)NCC(=O)O [N-Oleoylglycine],remaining activity at 3.75 µM,[1]; [11],106%
same,remaining activity at 1.25 µM,[2]; [11],104%
"O=c1[nH]ccc2c(S(=O)(=O)N3CCCNCC3)cccc12 [HA 1100 hydrochloride - 1-[(1,2-Dihydro-1-oxo-5-isoquinolinyl)sulfonyl]hexahydro-1H-1,4-diazepine hydrochloride]",remaining activity at 3.75 µM,[1]; [12],97.2%
same,remaining activity at 1.25 µM,[2]; [12],95.2%
Nc1ccn([C@@H]2O[C@H](CO)[C@@H](O)[C@H]2O)c(=O)n1 [Cytidine],remaining activity at 3.75 µM,[1]; [13],100%
same,remaining activity at 3.75 µM,[1]; [14],110%
same,remaining activity at 3.75 µM,[1]; [15],97.3%
same,remaining activity at 1.25 µM,[2]; [13],97.5%
same,remaining activity at 1.25 µM,[2]; [14],108%
same,remaining activity at 1.25 µM,[2]; [15],98.6%
CC(=O)N1CCN(c2ccc(OC[C@@H]3CO[C@@](Cn4ccnc4)(c4ccc(Cl)cc4Cl)O3)cc2)CC1 (racemic) [Ketoconazole],remaining activity at 3.75 µM,[1]; [16],107%
same,remaining activity at 3.75 µM,[1]; [17],100%
same,remaining activity at 1.25 µM,[2]; [16],107%
same,remaining activity at 1.25 µM,[2]; [17],99.4%
Cc1ccc(Nc2nccc(N(C)c3ccc4c(C)n(C)nc4c3)n2)cc1S(N)(=O)=O [Pazopanib],remaining activity at 3.75 µM,[1]; [18],103%
same,remaining activity at 1.25 µM,[2]; [18],103%
O[C@H](CNC[C@@H](O)[C@H]1CCc2cc(F)ccc2O1)[C@@H]1CCc2cc(F)ccc2O1 [Nebivolol (hydrochloride)],remaining activity at 3.75 µM,[1]; [19],102%
same,remaining activity at 1.25 µM,[2]; [19],105%
Nc1ccncc1 [4-Aminopyridine],remaining activity at 3.75 µM,[1]; [20],104%
same,remaining activity at 1.25 µM,[2]; [20],104%
CCOC(=O)N[C@@H]1CC[C@@H]2[C@@H](C1)C[C@H]1C(=O)O[C@H](C)[C@H]1[C@H]2/C=C/c1ccc(-c2cccc(F)c2)cn1 [Vorapaxar],remaining activity at 3.75 µM,[1]; [21],89.4%
same,remaining activity at 1.25 µM,[2]; [21],97.6%
